pIC50: −log10 of the molar value.
Target: BTK enzyme (full-length BTK, hBTK) (Homo sapiens (Human), UniProt Q06187)
Assay: Btk enzyme activity assay, LANCE TR-FRET
Format: biochemical
Conditions: 50 pM hBTK, 2 μM biotin-A5-peptide, 25 μM ATP, 60 minute compound & enzyme incubation, read-out: BTK binding IC50
Experimental: BTK enzymatic activity was determined with the LANCE (Lanthanide Chelate Excite) TR-FRET (Time-resolved fluorescence resonance energy transfer) assay. In this assay, the potency (IC50) of each compound was determined from an eleven point (1:3 serial dilution; final compound concentration range in assay from 1 μM to 0.017 nM) titration curve using the following outlined procedure. To each well of a black non-binding surface Corning 384-well microplate (Corning Catalog #3820), 5 nL of compound (2000 fold dilution in final assay volume of 10 μL) was dispensed, followed by the addition of 7.5 μL of 1× kinase buffer (50 mM Hepes 7.5, 10 mM MgCl2, 0.01% Brij-35, 1 mM EGTA, 0.05% BSA & 1 mM DTT) containing 5.09 pg/μL (66.67 pM) of BTK enzyme (recombinant protein from baculovirus-transfected Sf9 cells: full-length BTK, 6HIS-tag cleaved). Following a 60 minute compound & enzyme incubation, each reaction was initiated by the addition of 2.5 μL 1× kinase buffer containing 8 μM biotinylated “A5” peptide (Biotin-EQEDEPEGDYFEWLE-NH2) (SEQ. ID. NO.: 1), and 100 μM ATP. The final reaction in each well of 10 μL consists of 50 pM hBTK, 2 μM biotin-A5-peptide, and 25 μM ATP. Phosphorylation reactions were allowed to proceed for 120 minutes. Reactions were immediately quenched by the addition of 20 uL of 1× quench buffer (15 mM EDTA, 25 mM Hepes 7.3, and 0.1% Triton X-100) containing detection reagents (0.626 nM of LANCE-Eu-W1024-anti-phosphoTyrosine antibody, PerkinElmer and 86.8 nM of Streptavidin-conjugated Dylight 650, Dyomics/ThermoFisher Scientific). After 60 minutes incubation with detection reagents, reaction plates were read on a PerkinElmer EnVision plate reader using standard TR-FRET protocol. Briefly, excitation of donor molecules (Eu-chelate:anti-phospho-antibody) with a laser light source at 337 nm produces energy that can be transferred to Dylight-650 acceptor molecules if this donor:acceptor pair is within close proximity. Fluorescence intensity at both 665 nm (acceptor) and 615 nm (donor) are measured and a TR-FRET ratio calculated for each well (acceptor intensity/donor intensity). IC50 values were determined by 4 parameter robust fit of TR-FRET ratio values vs. (Log10) compound concentrations.

BTK enzyme (full-length BTK, hBTK), sequence (Q06187 whole entry): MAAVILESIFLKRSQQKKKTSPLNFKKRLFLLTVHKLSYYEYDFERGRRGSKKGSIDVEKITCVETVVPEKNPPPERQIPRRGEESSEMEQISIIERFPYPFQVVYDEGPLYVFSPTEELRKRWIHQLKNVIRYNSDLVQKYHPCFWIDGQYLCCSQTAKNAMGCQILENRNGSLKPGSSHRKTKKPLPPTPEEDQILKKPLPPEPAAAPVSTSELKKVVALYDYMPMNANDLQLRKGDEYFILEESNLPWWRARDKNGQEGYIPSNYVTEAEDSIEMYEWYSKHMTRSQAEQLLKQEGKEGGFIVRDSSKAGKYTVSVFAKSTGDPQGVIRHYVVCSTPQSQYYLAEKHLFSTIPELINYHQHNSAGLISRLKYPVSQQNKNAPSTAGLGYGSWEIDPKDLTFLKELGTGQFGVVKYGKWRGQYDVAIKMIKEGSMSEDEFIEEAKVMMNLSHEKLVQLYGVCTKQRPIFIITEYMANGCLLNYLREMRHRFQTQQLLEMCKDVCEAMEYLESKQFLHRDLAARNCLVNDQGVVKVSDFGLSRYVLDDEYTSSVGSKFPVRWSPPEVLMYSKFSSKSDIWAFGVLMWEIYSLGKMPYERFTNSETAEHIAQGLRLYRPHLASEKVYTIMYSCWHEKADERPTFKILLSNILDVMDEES

Structure (SMILES) | pIC50
CCOc1cc(C(=O)Nc2cc(C(F)(F)F)n(C)n2)ccc1-c1nc([C@@]2(C)CC[C@@H]3COC(=O)N3C2)n2ccnc(N)c12 [Example 2, 4-(8-amino-3-((6S,8aR)-6-methyl-3-oxohexahydro-1H-oxazolo[3,4-a]pyridin-6-yl)imidazo[1,5-a]pyrazin-1-yl)-3-ethoxy-N-(1-methyl-5-(trifluoromethyl)-1H-pyrazol-3-yl)benzamide] | 8.51
CCOc1cc(C(=O)Nc2cc(C(F)(F)F)n(C)n2)ccc1-c1nc([C@]2(C)CC[C@H]3COC(=O)N3C2)n2ccnc(N)c12 [Example 8, 4-{8-amino-3-[(6R,8aS)-6-methyl-3-oxohexahydro[1,3]oxazolo[3,4-a]pyridin-6-yl]imidazo[1,5-a]pyrazin-1-yl}-3-ethoxy-N-[1-methyl-5-(trifluoromethyl)-1H-pyrazol-3-yl]benzamide] | 9.15
CCOc1cc(C(=O)Nc2cc(C(F)(F)F)ccn2)ccc1-c1nc(C2(CC)CCC3CCN(CC)C(=O)N3C2)n2ccnc(N)c12 (single isomer, unassigned) [Example 6, 4-[8-amino-3-(2,7-diethyl-1-oxooctahydro-1H-pyrido[1,2-c]pyrimidin-7-yl)imidazo[1,5-a]pyrazin-1-yl]-3-ethoxy-N-[4-(trifluoromethyl)pyridin-2-yl] benzamide] | 6.67
CCOc1cc(C(=O)Nc2cc(C(F)(F)F)ccn2)ccc1-c1nc([C@@]2(C)CC[C@@H]3COC(=O)N3C2)n2ccnc(N)c12 [Example 1, 4-(8-amino-3-((6S,8aR)-6-methyl-3-oxohexahydro-1H-oxazolo[3,4-a]pyridin-6-yl)imidazo[1,5-a]pyrazin-1-yl)-3-ethoxy-N-(4-(trifluoromethyl)pyridin-2-yl)benzamide] | 9.21
CCOc1cc(C(=O)Nc2cc(C(F)(F)F)n(C)n2)c(Cl)cc1-c1nc([C@]2(C)CC[C@H]3CN(C(C)C)CC(=O)N3C2)n2ccnc(N)c12 [Example 16, 4-{8-amino-3-[(7R,9aS)-7-methyl-2-(1-methylethyl)-4-oxooctahydro-2H-pyrido[1,2-a]pyrazin-7-yl]imidazo[1,5-a]pyrazin-1-yl}-2-chloro-5-ethoxy-N-[1-methyl-5-(trifluoromethyl)-1H-pyrazol-3-yl] benzamide] | 8.47
CCOc1cc(C(=O)Nc2cc(C(F)(F)F)n(C)n2)ccc1-c1nc([C@]2(C)CC[C@H]3CN(C(C)C)CC(=O)N3C2)n2ccnc(N)c12 [Example 15, 4-{8-amino-3-[(7R,9aS)-7-methyl-2-(1-methylethyl)-4-oxooctahydro-2H-pyrido[1,2-a]pyrazin-7-yl]imidazo[1,5-a]pyrazin-1-yl}-3-ethoxy-N-[1-methyl-5-(trifluoromethyl)-1H-pyrazol-3-yl]benzamide] | 8.90
CCOc1cc(C(=O)Nc2cc(C(F)(F)F)ccn2)ccc1-c1nc([C@]2(C)CC[C@H]3CCC(=O)N3C2)n2ccnc(N)c12 [Example 18, 4-(8-amino-3-((6R,8aS)-6-methyl-3-oxooctahydroindolizin-6-yl)imidazo[1,5-a]pyrazin-1-yl)-3-ethoxy-N-(4-(trifluoromethyl)pyridin-2-yl)benzamide] | 9.36
C[C@@]1(c2nc(-c3ccc(C(=O)Nc4cc(C(F)(F)F)ccn4)cc3)c3c(N)nccn23)CC[C@H]2CCC(=O)N2C1 [Example 17, 4-(8-amino-3-((6R,8aS)-6-methyl-3-oxooctahydroindolizin-6-yl)imidazo[1,5-a]pyrazin-1-yl)-N-(4-(trifluoromethyl)pyridin-2-yl)benzamide] | 9.74
COc1cc(C(=O)Nc2cc(C(F)(F)F)ccn2)ccc1-c1nc([C@]2(C)CC[C@H]3CCC(=O)N3C2)n2ccnc(N)c12 [Example 19, 4-(8-amino-3-((6R,8aS)-6-methyl-3-oxooctahydroindolizin-6-yl)imidazo[1,5-a]pyrazin-1-yl)-3-methoxy-N-(4-(trifluoromethyl)pyridin-2-yl)benzamide] | 9.48
CCOc1cc(C(=O)Nc2cc(C(F)(F)F)ccn2)ccc1-c1nc([C@]2(C)CC[C@H]3CN(C(C)C)CC(=O)N3C2)n2ccnc(N)c12 [Example 14, 4-{8-amino-3-[(7R,9aS)-7-methyl-2-(1-methylethyl)-4-oxooctahydro-2H-pyrido[1,2-a]pyrazin-7-yl]imidazo[1,5-a]pyrazin-1-yl}-3-ethoxy-N-[4-(trifluoromethyl)pyridin-2-yl] benzamide] | 9.38
CCOc1cc(C(=O)Nc2cc(C(F)(F)F)ccn2)ccc1-c1nc([C@]2(C)CC[C@H]3COC(=O)N3C2)n2ccnc(N)c12 [Example 7] | 9.23
CCOc1cc(C(=O)Nc2cc(C(F)(F)F)ccn2)cc(F)c1-c1nc([C@]2(C)CC[C@H]3COC(=O)N3C2)n2ccnc(N)c12 [Example 11, 4-{8-amino-3-[(6R,8aS)-6-methyl-3-oxohexahydro[1,3]oxazolo[3,4-a]pyridin-6-yl]imidazo[1,5-a]pyrazin-1-yl}-3-ethoxy-5-fluoro-N-[4-(trifluoromethyl)pyridin-2-yl] benzamide] | 9.23
CCOc1cc(C(=O)Nc2cc(C(F)(F)F)ccn2)ccc1-c1nc([C@@]2(C)CC[C@@H]3CN(C(C)C)CC(=O)N3C2)n2ccnc(N)c12 [Example 3, 4-(8-amino-3-((7S,9aR)-2-isopropyl-7-methyl-4-oxooctahydro-1H-pyrido[1,2-a]pyrazin-7-yl)imidazo[1,5-a]pyrazin-1-yl)-3-ethoxy-N-(4-(trifluoromethyl)pyridin-2-yl)benzamide bis(2,2,2-trifluoroacetate)] | 9.21
CCOc1cc(C(=O)Nc2cc(C(F)(F)F)ccn2)ccc1-c1nc(C2(C)CCC3CCN(C)C(=O)N3C2)n2ccnc(N)c12 (stereo not shown) [Example 13, 4-[8-amino-3-(2,7-dimethyl-1-oxooctahydro-1H-pyrido[1,2-c]pyrimidin-7-yl)imidazo[1,5-a]pyrazin-1-yl]-3-ethoxy-N-[4-(trifluoromethyl)pyridin-2-yl] benzamide] | 8.00
CCOc1cc(C(=O)Nc2cc(C(F)(F)F)ccn2)ccc1-c1nc(C2(CC)CCC3CCN(CC)C(=O)N3C2)n2ccnc(N)c12 (single isomer, unassigned) [Example 5, 4-[8-amino-3-(2,7-diethyl-1-oxooctahydro-1H-pyrido[1,2-c]pyrimidin-7-yl)imidazo[1,5-a]pyrazin-1-yl]-3-ethoxy-N-[4-(trifluoromethyl)pyridin-2-yl] benzamide] | 6.00
C[C@@]1(c2nc(-c3ccc(C(=O)Nc4cc(C5CC5)ccn4)cc3F)c3c(N)nccn23)CC[C@H]2COC(=O)N2C1 [Example 10, 4-{8-amino-3-[(6R,8aS)-6-methyl-3-oxohexahydro[1,3]oxazolo[3,4-a]pyridin-6-yl]imidazo[1,5-a]pyrazin-1-yl}-N-(4-cyclopropylpyridin-2-yl)-3-fluorobenzamide] | 9.74
CCOc1cc(C(=O)Nc2cc(C(F)(F)F)ccn2)ccc1-c1nc(C2(C)CCC3CCN(C)C(=O)N3C2)n2ccnc(N)c12 (stereo not shown) [Example 12, 4-[8-amino-3-(2,7-dimethyl-1-oxooctahydro-1H-pyrido[1,2-c]pyrimidin-7-yl)imidazo[1,5-a]pyrazin-1-yl}-3-ethoxy-N-[4-(trifluoromethyl)pyridin-2-yl] benzamide] | 6.39
C[C@@]1(c2nc(-c3ccc(C(=O)Nc4cc(C(F)(F)F)ccn4)cc3F)c3c(N)nccn23)CC[C@H]2COC(=O)N2C1 [Example 9, 4-{8-amino-3-[(6R,8aS)-6-methyl-3-oxohexahydro[1,3]oxazolo[3,4-a]pyridin-6-yl]imidazo[1,5-a]pyrazin-1-yl}-3-fluoro-N-[4-(trifluoromethyl)pyridin-2-yl] benzamide] | 9.66
CCOc1cc(C(=O)Nc2cc(C(F)(F)F)n(C)n2)ccc1-c1nc([C@@]2(C)CC[C@@H]3CN(C(C)C)CC(=O)N3C2)n2ccnc(N)c12 [Example 4, 4-(8-amino-3-((7S,9aR)-2-isopropyl-7-methyl-4-oxooctahydro-1H-pyrido[1,2-a]pyrazin-7-yl)imidazo[1,5-a]pyrazin-1-yl)-3-ethoxy-N-(1-methyl-5-(trifluoromethyl)-1H-pyrazol-3-yl)benzamide bis(2,2,2-trifluoroacetate)] | 8.60

Reference: patent publication US10040805B2, “Substituted imidazo[1,5-a]pyrazines as Btk inhibitors” (MERCK SHARP & DOHME CORP., priority 2014, dated 2018)
